From US8642593B2, “2,4-pyrimidinediamine compounds and prodrugs and their uses” (Rigel Pharmaceuticals, Inc., priority 2009, dated 2014)
Like-named read-outs stand apart in the source and are kept apart here.

What was measured:
[1] = molecular target: T1, Ret kinase (Homo sapiens, UniProt P07949); experiment: Biochemical Ret Assay (ELISA-based); details: for IC50: Table 2, unit inferred, read-out: Biochem Ret; for selectivity over Ret kinase compared with the control: vs control compound
T1 construct: purchased Millipore #14-570
T1 sequence (P07949 658-1114 limits assumed): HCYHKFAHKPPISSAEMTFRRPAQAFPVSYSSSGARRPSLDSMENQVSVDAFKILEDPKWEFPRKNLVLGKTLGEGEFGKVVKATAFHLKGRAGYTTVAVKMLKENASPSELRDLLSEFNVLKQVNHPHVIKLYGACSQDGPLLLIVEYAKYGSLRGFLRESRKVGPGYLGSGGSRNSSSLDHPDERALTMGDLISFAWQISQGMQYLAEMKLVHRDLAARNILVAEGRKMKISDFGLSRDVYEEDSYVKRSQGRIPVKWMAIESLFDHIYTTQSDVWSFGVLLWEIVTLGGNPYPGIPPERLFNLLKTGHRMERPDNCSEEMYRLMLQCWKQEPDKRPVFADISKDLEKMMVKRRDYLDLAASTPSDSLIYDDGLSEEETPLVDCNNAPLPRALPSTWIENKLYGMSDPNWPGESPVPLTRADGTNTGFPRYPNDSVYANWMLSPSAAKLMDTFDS
Method: Compounds are tested for the ability to inhibit Ret kinase in an ELISA-based assay. The assay is carried out in a Costar white 96 well plate (Fisher Scientific, #07-200-591) coated overnight with 0.01 mg/mL NeutrAvidin (Pierce, 100 μL/well) at 4° C. The pre-coated 96 well plate is blocked with 2% BSA in PBST buffer for at least 1 h at room temperature before starting the assay. Serially diluted test compound stock solution is prepared separately in DMSO solution starting from 300 μM, and 2 μL/well of this diluted compound (3% DMSO final concentration) is added directly to the NeutrAvidin coated assay plate containing 55.5 μL/well of kinase reaction buffer (20 mM HEPES, pH 7.4, 5 mM MgCl2, 1 mM DTT, 0.01% Brij-35) pre-mixed with ATP and kinase substrate (TK2 peptide). Reaction is initiated by adding 2.5 μL/well Ret kinase (Millipore, #14-570) resulting in a final reaction volume of […]. The reaction is allowed to continue for 30 minutes at room temperature. […] After completing the reaction, the wells are washed three times with PBST and incubated for 1 h at room temperature with 100 μL/well of phosphopeptide detection antibody solution (mixture of 1:10000 diluted mouse anti-pTyr monoclonal antibody (Cell Signal Technology, #9411) and 1:10000 diluted goat HRP-conjugated anti-mouse IgG (Jackson Immunoresearch, #115-035-003)). The plate is washed three times with PBST, developed with supersignal ELISA pico chemiluminescent substrate (Pierce), and read on a SpectraMax M5 microplate reader (Molecular Devices).

[2] = molecular target: T2, VEGF-induced phosphorylation of VEGFR in HUVEC cells (Homo sapiens, UniProt P35968); experiment: Cellular VEGFR Assay; type: cell-based; details: for IC50: HUVEC cells, Table 2, unit inferred, read-out: Cellular VEGFR2; for selectivity against VEGF as compared to the control: vs control compound
T2 construct: VEGF-induced phosphorylation of VEGFR in HUVEC cells; host or cells: HUVEC cells
T2 sequence (P35968 20-1356): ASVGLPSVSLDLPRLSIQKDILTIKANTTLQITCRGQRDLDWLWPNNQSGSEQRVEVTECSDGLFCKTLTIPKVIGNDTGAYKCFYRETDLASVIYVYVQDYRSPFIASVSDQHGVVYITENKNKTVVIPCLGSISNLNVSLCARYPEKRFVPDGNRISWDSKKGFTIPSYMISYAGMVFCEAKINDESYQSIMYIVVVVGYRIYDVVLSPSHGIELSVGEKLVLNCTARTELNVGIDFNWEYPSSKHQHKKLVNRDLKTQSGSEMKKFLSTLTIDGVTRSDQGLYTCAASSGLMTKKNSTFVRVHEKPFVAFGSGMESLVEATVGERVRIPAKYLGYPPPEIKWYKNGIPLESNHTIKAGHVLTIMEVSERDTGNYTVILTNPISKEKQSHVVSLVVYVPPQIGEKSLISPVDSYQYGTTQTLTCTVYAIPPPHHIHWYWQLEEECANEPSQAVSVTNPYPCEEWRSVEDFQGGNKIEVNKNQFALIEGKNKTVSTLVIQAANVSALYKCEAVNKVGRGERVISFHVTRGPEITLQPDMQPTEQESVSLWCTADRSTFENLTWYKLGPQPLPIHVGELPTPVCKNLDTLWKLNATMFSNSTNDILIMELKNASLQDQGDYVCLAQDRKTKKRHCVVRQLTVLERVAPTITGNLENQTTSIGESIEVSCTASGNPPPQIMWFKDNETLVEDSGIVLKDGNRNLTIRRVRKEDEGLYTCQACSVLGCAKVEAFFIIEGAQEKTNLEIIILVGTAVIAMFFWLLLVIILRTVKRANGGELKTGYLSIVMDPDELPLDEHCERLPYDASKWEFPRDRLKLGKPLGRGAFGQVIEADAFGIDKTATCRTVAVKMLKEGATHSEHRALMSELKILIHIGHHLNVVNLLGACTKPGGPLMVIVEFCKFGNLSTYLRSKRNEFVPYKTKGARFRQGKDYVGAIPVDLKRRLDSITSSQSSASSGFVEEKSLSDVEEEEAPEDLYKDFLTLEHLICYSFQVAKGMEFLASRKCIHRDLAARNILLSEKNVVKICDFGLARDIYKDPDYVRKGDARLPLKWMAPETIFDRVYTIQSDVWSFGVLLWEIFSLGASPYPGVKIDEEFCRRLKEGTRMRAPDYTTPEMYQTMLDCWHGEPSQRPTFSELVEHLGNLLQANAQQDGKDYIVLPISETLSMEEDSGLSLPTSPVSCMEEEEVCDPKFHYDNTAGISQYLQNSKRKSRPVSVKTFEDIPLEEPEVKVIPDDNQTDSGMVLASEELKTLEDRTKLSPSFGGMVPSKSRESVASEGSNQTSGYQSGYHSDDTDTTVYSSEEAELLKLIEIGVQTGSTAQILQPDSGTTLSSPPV
Method: The coated plates are then blocked with 2% BSA in PBS for 2 hours.
Cells are washed 1× with PBS. 100 μL starvation medium (EBM2 media, Cambrex, #CC3156, containing 1% BSA and 0.2% FBS) is added and cells are returned to the incubator for 20-24 hours. Test compounds or control drugs are serially diluted in DMSO in a compound plate and further diluted 1:250 in starvation medium. 100 μL, of this 2× concentration is dosed to the cells. […] Plates are then placed on a rocker/shaker at 4° C. for 1 hour.
Phosphorylated VEGFR2 is determined by ELISA. After a wash with TBST, 30 μL/well of the cell lysate is transferred into the anti-human VEGFR2 mAb-coated plates (described above) containing 200 μL/well of 1% BSA in PBS, and incubated with shaking at 4° C. overnight. […] The signal is read using a SpectraMax M5 plate reader.

[3] = test system: mast cell activation induced by FcγR cross-linking (CHMC cells); experiment: LD Tryptase CHMC: tryptase release assay; type: cell-based, Human; details: for IC50: Mast cell; for potency compared with the control, whole cell assay: vs control compound
Method: Compounds are assayed for inhibition of mast cell activation induced by FcγR cross-linking by measuring the activity of tryptase released upon degranulation as follows:
Human mast cells are cultured and differentiated from CD38-negative progenitor cell as described in U.S. Patent Publication No. 2005/0234049, which is hereby incorporated herein by reference in its entirety. For example, 65 μL of various concentrations of the test compound are prepared in MT (137 mM NaCl, 2.7 mM KCl, 1.8 mM CaCl2, 1.0 mM MgCl2, 5.6 mM Glucose, 20 mM Hepes (pH 7.4), 0.1% Bovine Serum Albumin, (Sigma, #A4503)) containing 2% MeOH and 1% DMSO, or control buffer are added to duplicate 96-well V-bottom plates. Pelleted and re-suspended (in warm MT) CHMC cells (65 μL) are added to each 96-well plate, mixed and incubated for 1 hour at 37° C. […] MT (25 μL) is added to control wells. After a 60-minute incubation at 37° C., cells and cell debris were pelleted by centrifugation at 1000 rpm for 10 min and tryptase and leukotriene C4 levels are measured.
To measure tryptase levels, 25 μL of supernatant from each well is transferred to a fresh 96-well black bottom plate, to which 100 μL of fresh tryptase substrate solution [(Z-Ala-Lys-Arg-AMC2TFA; Enzyme Systems Products, #AMC-246)]1:2000 in tryptase assay buffer [0.1M Hepes (pH 7.5), 10% w/v Glycerol, 10 μM Heparin (Sigma H-4898) 0.01% NaN3] is added. After 30 minutes incubation at room temperature, the optical density of the plates is measured at 355 nm/460 nm on a spectrophotometric plate reader.
Compounds of the disclosure were assayed for their ability to inhibit mast cell activation induced by FcγR cross-linking by measuring the activity of tryptase released upon degranulation.

[4] = Homo sapiens, Table 2, unit inferred, read-out: LD Tryptase CHMC
[5] = Homo sapiens, read-out: IC50 value (tryptase assay)
[6] = human mast cells, anti-IgG stimulation, read-out: IC50 (LD Tryptase CHMC)

SMILES | IC50 [1] | selectivity over Ret kinase compared with the control [1] | IC50 [2] | selectivity against VEGF as compared to the control [2] | IC50 [3, 4] | IC50 [3, 5] | IC50 [3, 6] | potency compared with the control, whole cell assay [3]
CC1(C)Oc2ccc(Nc3nc(Nc4ccc(N5CCOCC5)cc4)ncc3F)nc2NC1=O [Compound 3, N4-(2,2-Dimethyl-3-oxo-4H-5-pyrido[1,4]oxazin-6-yl)-5-fluoro-N2-(4-morpholinophenyl)-2,4-pyrimidinediamine] | 6 nM | significantly more selective | 5230 nM | significantly increased selectivity | 80 nM | < 100 nM | 80 nM | somewhat less potent than the control
CC1(C)Oc2ccc(Nc3nc(Nc4ccc(N5CCOCC5)nc4)ncc3F)nc2NC1=O [Compound 1, N4-(2,2-Dimethyl-3-oxo-4H-5-pyrido[1,4]oxazin-6-yl)-5-fluoro-N2-[6-morpholinopyridin-3-yl]-2,4-pyrimidinediamine] | 48 nM | significantly more selective | 16800 nM | significantly increased selectivity | 90 nM | < 100 nM | 90 nM | somewhat less potent than the control
